Laboratory results from patent publication US4081548A, “Antibiotics” (Merck & Co., Inc., priority 1976, dated 1978).
≈ marks a conversion by molar mass, not a printed value.

What was measured:
Escherichia coli 2017 = assay: agar dilution method, Table 2; format: cell-based; conditions: Mueller-Hinton agar, 18 hours, 37° C., strain resistance: --, read-out: Minimum Inhibitory Concentration
Experimental: (§1) A further evaluation of substantially pure antibiotic employed the agar dilution method. An inoculum of 2 × 10^4 to 1 × 10^5 organisms is applied as a 0.002 ml. droplet to the surface of Mueller-Hinton agar containing serial, twofold dilutions of antibiotic over the range 0.01 to 73 μg./ml. The results (Table 2) are reported as the minimum inhibitory concentration, in μg./ml., that being the lowest antibiotic concentration at which the growth of the test organism is inhibited over a period of 18 hours at 37° C.

Escherichia coli 2482 = assay: agar dilution method, Table 2; format: cell-based; conditions: Mueller-Hinton agar, 18 hours, 37° C., strain resistance: --, read-out: Minimum Inhibitory Concentration
Experimental: as §1

Escherichia coli 2964 = assay: agar dilution method, Table 2; format: cell-based; conditions: Mueller-Hinton agar, 18 hours, 37° C., strain resistance: P, read-out: Minimum Inhibitory Concentration
Experimental: as §1

Klebsiella 2921 = assay: agar dilution method, Table 2; format: cell-based; conditions: Mueller-Hinton agar, 18 hours, 37° C., strain resistance: P, read-out: Minimum Inhibitory Concentration
Experimental: as §1

Klebsiella 2922 = assay: agar dilution method, Table 2; format: cell-based; conditions: Mueller-Hinton agar, 18 hours, 37° C., strain resistance: P, read-out: Minimum Inhibitory Concentration
Experimental: as §1

Proteus mirabilis 2830 = assay: agar dilution method, Table 2; format: cell-based; conditions: Mueller-Hinton agar, 18 hours, 37° C., strain resistance: P, read-out: Minimum Inhibitory Concentration
Experimental: as §1

[1] = test system: Pseudomonas aeruginosa 2616; assay: agar dilution method, Table 2; format: cell-based; conditions: Mueller-Hinton agar, 18 hours, 37° C., strain resistance: P, read-out: Minimum Inhibitory Concentration
Experimental: as §1

[2] = test system: Pseudomonas aeruginosa 2824; assay: agar dilution method, Table 2; format: cell-based; conditions: Mueller-Hinton agar, 18 hours, 37° C., strain resistance: P, read-out: Minimum Inhibitory Concentration
Experimental: as §1

[3] = test system: Pseudomonas aeruginosa 3210; assay: agar dilution method, Table 2; format: cell-based; conditions: Mueller-Hinton agar, 18 hours, 37° C., strain resistance: P, read-out: Minimum Inhibitory Concentration
Experimental: as §1

Serratia 2840 = assay: agar dilution method, Table 2; format: cell-based; conditions: Mueller-Hinton agar, 18 hours, 37° C., strain resistance: P, read-out: Minimum Inhibitory Concentration
Experimental: as §1

[4] = test system: Staphylococcus aureus 2314; assay: agar dilution method, Table 2; format: cell-based; conditions: Mueller-Hinton agar, 18 hours, 37° C., strain resistance: P, read-out: Minimum Inhibitory Concentration
Experimental: as §1

Staph. aureus 2949 = assay: in vivo efficacy in infected mice, Table 3; set-up: species or system Staphylococcus aureus; conditions: 168 h, day 7 survival
Experimental: (§2) In determining the in vivo activity, thienamycin is dissolved in and diluted with 0.15M NaCl, 0.01M sodium phosphate, pH 7.0, to provide five fourfold concentrations of drug for testing. Female white Swiss mice, averaging about 21 g. in weight, were infected intraperitoneally and subcutaneously with the test organism suspended in broth. The numbers of organisms injected were determined by standard plate-count techniques. At the time of infection, and again 6 hours later, certain of the mice were treated intraperitoneally, subcutaneously and orally with the antibiotic. Five mice were used for each concentration of drug tested. An additional two mice, not infected, were treated with the antibiotic to determine whether the amount of agent injected was toxic. Controls of five mice for each of several dilutions of the infecting culture were included in each test in order to calculate the numbers of organisms that were lethal to 50% of the infected, untreated mice (LD50). This calculation was made using survival data of the seventh day after infection, at which time the amount of drug that should protect 50% of the infected mice (ED50) also was calculated.
(§3) All animals receiving this challenge and not treated with antibiotic died within 48 hours of the infection. The efficacy of thienamycin having a potency of 30,000 units per mg. is recorded in Table 3: […]

E. coli 2017 = assay: in vivo efficacy in infected mice, Table 3; conditions: Escherichia coli, 2017, ip, 168 h, i.p. x2 (at infection and 6 hours later), No. LD50 9, day 7 survival
Experimental: as §2, §3

[5] = test system: Pseudomonas aeruginosa 3210; assay: in vivo efficacy in infected mice, Table 3; conditions: 168 h, No. LD50 7, day 7 survival
Experimental: as §2, §3

solubility = format: physicochemical
[6] = pKa from pH induced shift in ultraviolet absorption spectrum; format: physicochemical; conditions: acidic function; 30 mM. phosphate buffer; read-out: pKa1
Experimental: Thienamycin is an internally neutralized amphoteric substance, whose acidic function has a pKa1 = 3.08 when measured in 30 mM. phosphate buffer, taking advantage of the pH induced shift in ultraviolet absorption spectrum.

[7] = stability in aqueous solution; format: physicochemical
inactivation by cysteine = format: physicochemical; conditions: cysteine 4 μmoles per ml., pH 7.0, 20° C.
β-lactamase = β-lactamase (Enterobacter cloacae, UniProt P05364); assay: exposure to β-lactamase preparations; format: biochemical; conditions: β-lactamase from sonic disintegration of a strain of Enterobacter cloacae
β-lactamase, sequence (P05364 21-381): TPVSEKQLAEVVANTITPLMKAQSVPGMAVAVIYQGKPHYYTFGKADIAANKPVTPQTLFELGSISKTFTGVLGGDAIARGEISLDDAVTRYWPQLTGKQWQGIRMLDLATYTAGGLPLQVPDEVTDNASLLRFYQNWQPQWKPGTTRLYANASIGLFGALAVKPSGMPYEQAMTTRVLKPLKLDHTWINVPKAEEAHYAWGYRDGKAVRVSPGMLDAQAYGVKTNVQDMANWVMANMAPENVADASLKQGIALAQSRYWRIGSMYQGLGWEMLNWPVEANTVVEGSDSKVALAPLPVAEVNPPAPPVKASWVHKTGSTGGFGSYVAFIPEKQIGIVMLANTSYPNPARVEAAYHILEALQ
Excerpt: Finally, antibiotic activity and absorbance are extinguished on exposure to preparations of β-lactamase obtained by the sonic disintegration of a strain of Enterobacter cloacae.

[8] = test system: Staphylococcus aureus ATCC 6538P; assay: disc-diffusion assay of antibacterial activity (5 ml plates); format: cell-based; conditions: one unit = same inhibition as 1 μg. of cephalothin/ml.
Experimental: Assays of antibacterial activity are run according to the following disc-diffusion procedure unless otherwise indicated. The assay plates are prepared in the following manner. An overnight growth of the assay organism, Staphylococcus aureus ATCC 6538P, in nutrient broth plus 0.2% yeast extract is diluted with nutrient broth plus 0.2% yeast extract to a suspension having 55% transmittance at a wavelength of 660 mμ. This suspension is added to Difco nutrient agar supplemented with 2.0 g./l. Difco yeast extract, at 47° C. to 48° C., to make a composition containing 33.2 ml. of the suspension per liter of agar. Five ml. of this suspension is poured into petri dishes of 85 mm. diameter, and these plates are chilled and held at 4° C. until used (5 day maximum).
Samples of the antibiotic to be assayed are diluted to an appropriate concentration in phosphate buffer at pH 7. Filter-paper discs, 0.5-inch in diameter, are dipped into the test solution and placed on the surface of the assay plate; two discs for each sample are normally placed on one plate opposite to one another. The plates are incubated overnight at 37° C. and the zone of inhibition is measured as mm. diameter. The zone of inhibition measured in mm. determines relative potencies or, when compared with a purified reference standard such as cephalothin, the potency of antibiotic in units/ml. The unit of activity reported in Examples 4 through 7 is based on cephalothin standard solutions of 8, 4, 2 and 1 μg./ml. One unit is defined as the amount which calculates to produce the same inhibition as 1 μg. of cephalothin/ml. that zone of inhibition being between 16 and 21 mm. diameter.

[9] = Hydroxylamine-Extinguishable Absorbance; format: physicochemical; conditions: pure thienamycin; 10 mM. hydroxylamine, pH 7.0, room temperature, at least 30 min., 297 nm
Experimental: The proportion of absorbance measured at 297 nm which can be attributed to the antibiotic content in impure samples is determined by the selective extinction of this absorbance (with concommitant inactivation of antibiotic activity) upon reaction with dilute hydroxylamine.
Samples are prepared in 0.01M potassium phosphate buffer at pH 7.0 to have an initial A297 between 0.05 and 2.0. Freshly prepared, neutral hydroxylamine (NH2 OH.HCl plus NaOH to a final pH of 7) is added to a final concentration of 10 mM., and reaction is allowed to progress at room temperature for at least 30 min. The resulting A297 when substracted from the initial reading (after correction for dilution by added reagent) yields the hydroxylamine-extinguishable absorbance. Solutions of pure thienamycin show a hydroxylamine-extinguishable absorbance of 94.5%.

Compound: C[C@@H](O)[C@H]1C(=O)N2C(C(=O)O)=C(SCCN)C[C@H]12 [Thienamycin, thienamycin]
- MIC (Escherichia coli 2017): 0.15 µg/mL (≈ 0.551 µM)
- MIC (Escherichia coli 2482): 0.3 µg/mL (≈ 1.1 µM)
- MIC (Escherichia coli 2964): 0.3 µg/mL (≈ 1.1 µM)
- MIC (Klebsiella 2921): 0.3 µg/mL (≈ 1.1 µM)
- MIC (Klebsiella 2922): 0.3 µg/mL (≈ 1.1 µM)
- MIC (Proteus mirabilis 2830): 4.7 µg/mL (≈ 17.3 µM)
- MIC [1]: 4.7 µg/mL (≈ 17.3 µM)
- MIC [2]: 0.6 µg/mL (≈ 2.2 µM)
- MIC [3]: 2.4 µg/mL (≈ 8.81 µM)
- MIC (Serratia 2840): 4.7 µg/mL (≈ 17.3 µM)
- MIC [4]: 0.02 µg/mL (≈ 0.0734 µM)
- ED50 (Staph. aureus 2949; Staphylococcus aureus, 2949, ip, mice, i.p. x2 (at infection and 6 hours later), No. LD50 7): 0.012 mg/kg
- ED50 (Staph. aureus 2949; Staphylococcus aureus, 2949, po, mice fasted 24 hours, p.o. x2 (at infection and 6 hours later), No. LD50 13): 0.67 mg/kg
- ED50 (Staph. aureus 2949; Staphylococcus aureus, 2949, sc, mice, s.c. x2 (at infection and 6 hours later), No. LD50 7): 0.08 mg/kg
- ED50 (E. coli 2017): 0.375 mg/kg
- ED50 ([5]; Pseudomonas aeruginosa, 3210, ip, i.p. x3 (at infection, 2 and 4 hours)): 0.45 mg/kg
- ED50 ([5]; Pseudomonas aeruginosa, 3210, sc, s.c. x3 (at infection, 2 and 4 hours)): 2.05 mg/kg
- solubility in methanol (solubility; methanol): limited solubility in methanol
- solubility in water (solubility; water): very soluble in water
- pKa [6]: 3.08
- half-life ([7]; 1 mg./ml. in 10 mM. potassium phosphate, pH 7.0, 0° C.): 53300 min
- half-life ([7]; 1 mg./ml. in water (pH 7.0), 0° C.): 28800 min
- half-life ([7]; 12 mg./ml. in 10 mM. phosphate buffer, 10° C.): 4320 min
- coloration on storage ([7]; 12 mg./ml. in 10 mM. phosphate buffer, 10° C., by the 48th hour, initially pale yellow): deep amber coloration
- half-life ([7]; aqueous solution, pH 8.2, 30° C.): 10 min
- stability in aqueous solution ([7]; below 1 mg./ml., phosphate buffers, pH between 6 and 7): optimum stability
- half-life ([7]; pH 2.0, 30 mM. phosphate buffer, room temperature): 6.7 min
- half-life ([7]; pH 3.0, 30 mM. phosphate buffer, room temperature): 30 min
- half-life ([7]; pH 4.0, 30 mM. phosphate buffer, room temperature): 346 min
- half-life ([7]; pH 8.8 (borate buffer), 30° C.): 5.7 min
- half-life ([7]; pH 12 (0.01M sodium hydroxide), 30° C.): 2.1 min
- half-life (inactivation by cysteine): 2.5 min
- antibiotic activity and absorbance on exposure to β-lactamase (β-lactamase): extinguished
- potency (estimated / calculated) ([8]; estimated or calculated potency): 30,140 units/mg.
- potency [8]: 30,000 units/mg.
- hydroxylamine-extinguishable absorbance [9]: 94.5%
